Activity calls are given as the source filed them. No cut-off for these calls is given here.
Experiments:
[1] = Photophysical property of the compound in water assessed as fluorescence quantum yield under 450 nm photoirradiation with blue light lamp by U-4100 spectrophotometric analysis; assay type: physicochemical; design: unit not given here; conditions: buffer
[2] = Photophysical property of the compound in MeOH assessed as fluorescence quantum yield under 450 nm photoirradiation with blue light lamp by U-4100 spectrophotometric analysis; assay type: physicochemical; design: unit not given here
[3] = Photophysical property of the compound assessed as singlet oxygen quantum yield under 15 W photoirradiation with blue LED light by EPR spectrophotometric analysis; assay type: physicochemical; design: unit not given here
[4] = Drug localization in nucleus of human HepG2 cells at 2 uM incubated for 2 hrs by […] staining based confocal fluorescence microscopy; assay type: ADME, subcellular; conditions: hepg2, 2 h
HepG2 [5] = experiment: Cytotoxicity against human HepG2 cells assessed as cell viability incubated for 4 hrs under dark condition by MTT assay; assay type: functional, cell-based; conditions: HepG2, 4 h
[6] = Phototoxicity against human HepG2 cells assessed as cell viability preincubated with compound for 4 hrs followed by light irradiation with 450 nm blue LED lamp for 10 mins and measured after 24 hrs by MTT assay; assay type: functional, cell-based; conditions: HepG2, light or radiation study
[7] = Phototoxic index, ratio of IC50 for cytotoxicity against human HepG2 cells incubated for 4 hrs under dark condition by MTT assay to IC50 for cytotoxicity against human HepG2 cells preincubated with compound for 4 hrs followed by light irradiation with 450 nm blue LED lamp for 10 mins and measured after 24 hrs by MTT assay; assay type: functional
[8] = Drug localization in lysosome of human HepG2 cells at 2 uM incubated for 2 hrs by Lyso-Tracker staining based confocal fluorescence microscopy; assay type: ADME, subcellular; conditions: hepg2, 2 h
[9] = Drug localization in mitochondria of human HepG2 cells at 2 uM incubated for 2 hrs by MitoTracker red CMXRos staining based confocal fluorescence microscopy; assay type: ADME; conditions: hepg2, 2 h
HepG2 [10] = experiment: (§1) Induction of apoptosis in human HepG2 cells assessed as chromatin condensation by measuring increase in blue fluorescence at 0.3 uM preincubated with compound for 4 hrs followed by light irradiation with 450 nm blue LED lamp for 10 mins and measured after 24 hrs by Hoechst 33342 staining based confocal microscopic analysis; assay type: functional, cell-based; conditions: time 1690.0 min
HepG2 [11] = experiment: as §1, with “in red” for “in blue”, “by PI” for “by Hoechst 33342”; assay type: functional, cell-based; conditions: time 1690.0 min
HepG2 [12] = experiment: Induction of ferroptosis in human HepG2 cells assessed as downregulation of Keap1 expression preincubated with compound for 4 hrs followed by light irradiation with blue LED lamp for 10 mins and measured after 24 hrs in presence of Fer-1 by Western blot analysis; assay type: functional, cell-based; conditions: time 1690.0 min
HepG2 [13] = experiment: Induction of ferroptosis in human HepG2 cells assessed as downregulation of Gpx4 expression preincubated with compound for 4 hrs followed by light irradiation with blue LED lamp for 10 mins and measured after 24 hrs in presence of Fer-1 by Western blot analysis; assay type: functional, cell-based; conditions: time 1690.0 min
HepG2 [14] = experiment: Induction of ferroptosis in human HepG2 cells assessed as downregulation of Fth1 expression preincubated with compound for 4 hrs followed by light irradiation with blue LED lamp for 10 mins and measured after 24 hrs in presence of Fer-1 by Western blot analysis; assay type: functional, cell-based; conditions: time 1690.0 min
HepG2 [15] = experiment: Induction of ferroptosis in human HepG2 cells assessed as cell viability preincubated with compound for 4 hrs followed by light irradiation with 450 nm blue LED lamp for 10 mins and measured after 24 hrs in presence of 50 uM Fer-1 by MTT assay relative to control; assay type: functional; conditions: time 1690 min; 28.17 h
HepG2 [16] = experiment: Induction of apoptosis in human HepG2 cells assessed as effect on PARP level preincubated with compound for 4 hrs followed by light irradiation with blue LED lamp for 10 mins and measured after 24 hrs by Western blot analysis; assay type: functional, cell-based; conditions: time 1690.0 min
HepG2 [17] = experiment: Induction of apoptosis in human HepG2 cells assessed as effect on caspase-3 level preincubated with compound for 4 hrs followed by light irradiation with blue LED lamp for 10 mins and measured after 24 hrs by Western blot analysis; assay type: functional, cell-based; conditions: time 1690.0 min
HepG2 [18] = experiment: Induction of apoptosis in human HepG2 cells assessed as increase in Bax expression preincubated with compound for 4 hrs followed by light irradiation with blue LED lamp for 10 mins and measured after 24 hrs by Western blot analysis; assay type: functional, cell-based; conditions: time 1690.0 min
HepG2 [19] = experiment: Induction of apoptosis in human HepG2 cells assessed as change in Bcl-2 level preincubated with compound for 4 hrs followed by light irradiation with blue LED lamp for 10 mins and measured after 24 hrs by Western blot analysis; assay type: functional, cell-based; conditions: time 1690.0 min
HepG2 [20] = experiment: Induction of apoptosis in human HepG2 cells assessed as reduction in Bcl-2/Bax ratio preincubated with compound for 4 hrs followed by light irradiation with blue LED lamp for 10 mins and measured after 24 hrs by Western blot analysis; assay type: functional, cell-based; conditions: time 1690.0 min
HepG2 [21] = experiment: Induction of apoptosis in human HepG2 cells assessed as cytochrome C release from mitochondria preincubated with compound for 4 hrs followed by light irradiation with blue LED lamp for 10 mins and measured after 24 hrs by Western blot analysis; assay type: functional, cell-based; conditions: time 1690.0 min
HepG2 [22] = experiment: Induction of mitochondrial damage in human HepG2 cells assessed as change in mitochondrial morphology at 1 uM preincubated with compound for 4 hrs followed by light irradiation with blue LED lamp for 10 mins and measured after 24 hrs by confocal microscopic analysis; assay type: functional, cell-based; conditions: time 1690.0 min
Mitochondrial membrane = experiment: Induction of mitochondrial membrane potential loss in human HepG2 cells at 3 uM incubated for 4 hrs in presence of light irradiation by TMRE staining based fluorescence microscopic analysis; assay type: cell membranes
HepG2 [23] = experiment: Antiproliferative activity against human HepG2 cells cultured as 3D spheroids assessed as inhibition of cell growth at 5 to 10 uM pretreated with 450 nm light irradiation and compound for 10 mins and measured at day 5 by fluorescence microscopic analysis; assay type: functional, cell-based; conditions: dose 5-10 µM, time 7210.0 min
HepG2 [24] = experiment: Antiproliferative activity against human HepG2 cells cultured as 3D spheroids assessed as inhibition of cell growth at 5 uM pretreated with 450 nm light irradiation and compound for 10 mins and measured at day 5 by fluorescence microscopic analysis; assay type: functional, cell-based; conditions: time 7210.0 min
[25] = Drug localization in endoplasmic reticulum of human HepG2 cells at 2 uM incubated for 2 hrs by ER-Tracker Blue staining based confocal fluorescence microscopy; assay type: ADME, subcellular; conditions: hepg2, 2 h
HepG2 [26] = experiment: as §1, with “0.1” for “0.3”; assay type: functional, cell-based; conditions: time 1690.0 min
HepG2 [27] = experiment: as §1, with “in red” for “in blue”, “at 0.1” for “at 0.3”, “by PI” for “by Hoechst 33342”; assay type: functional, cell-based; conditions: time 1690.0 min
HepG2 [28] = experiment: Induction of ferroptosis in human HepG2 cells assessed as cell death preincubated with compound for 4 hrs followed by light irradiation with 450 nm blue LED lamp for 10 mins and measured after 24 hrs in presence of ferrostatin-1 by MTT assay; assay type: functional, cell-based; conditions: time 1690.0 min
HepG2 [29] = experiment: Induction of ferroptosis in human HepG2 cells assessed as cell death preincubated with compound for 4 hrs followed by light irradiation with 450 nm blue LED lamp for 10 mins and measured after 24 hrs in presence of 50 uM ferrostatin-1 by MTT assay; assay type: functional, cell-based; conditions: time 1690.0 min
HepG2 [30] = experiment: Induction of ferroptosis in human HepG2 cells assessed as cell viability preincubated with compound for 4 hrs followed by light irradiation with 450 nm blue LED lamp for 10 mins and measured after 24 hrs in presence of necrostatin-1 by MTT assay; assay type: functional, cell-based; conditions: time 1690.0 min
HepG2 [31] = experiment: Induction of ferroptosis in human HepG2 cells assessed as cell viability preincubated with compound for 4 hrs followed by light irradiation with 450 nm blue LED lamp for 10 mins and measured after 24 hrs in presence of 3-methyladenine by MTT assay; assay type: functional, cell-based; conditions: time 1690.0 min
HepG2 [32] = experiment: Induction of ferroptosis in human HepG2 cells assessed as cell viability preincubated with compound for 4 hrs followed by light irradiation with 450 nm blue LED lamp for 10 mins and measured after 24 hrs in presence of chloroquine by MTT assay; assay type: functional, cell-based; conditions: time 1690.0 min

With `CCN(CC)c1ccc2cc(-c3nc4ccc(OCCN5CCCCC5)cc4c(=O)[nH]3)c(=O)oc2c1` the Activity [1] was 15.68, the Activity [2] was 47.65 and the Activity [3] was 24.5. For the same compound, the Drug uptake [4] was “Active”, the IC50 (HepG2 [5]) was 3.95 µM and the IC50 [6] was 0.11 µM. The “Ratio IC50” value [7] was 35.9.

In the case of `CCN(CC)c1ccc2cc(-c3nc4ccc(OCCCN5CCOCC5)cc4c(=O)[nH]3)c(=O)oc2c1`, the Activity [1] is reported as 31.49, the Activity [2] is reported as 79.66 and the Activity [3] is reported as 13.06. For the same compound, the Drug uptake [8] was “Active”, the IC50 (HepG2 [5]) was 12.4 µM and the IC50 [6] was 0.38 µM. The “Ratio IC50” value [7] was 32.52.

With `CCN(CC)c1ccc2cc(-c3nc4ccc(OCc5cn(CCC[P+](c6ccccc6)(c6ccccc6)c6ccccc6)nn5)cc4c(=O)[nH]3)c(=O)oc2c1.[Br-]` the Activity [1] was 8.72, the Activity [2] was 69.6 and the Activity [3] was 27.22. The Drug uptake [9] was “Active”, the IC50 (HepG2 [5]) was 46.7 µM and the IC50 [6] was 0.28 µM. The “Ratio IC50” value [7] was 166.89, the Activity (HepG2 [10]) was “Active” and the Activity (HepG2 [11]) was “Active”. For the same compound, the Activity (HepG2 [12]) was “Active”, the Activity (HepG2 [13]) was “Active” and the Activity (HepG2 [14]) was “Active”. For the same compound, the Activity (HepG2 [15]) was ~70%, the Activity (HepG2 [16]) was “Active” and the Activity (HepG2 [17]) was “Active”. For the same compound, the Activity (HepG2 [18]) was “Active”, the Activity (HepG2 [19]) was “inactive” and the Activity (HepG2 [20]) was “Active”. The Activity (HepG2 [21]) was “Active”, the Activity (HepG2 [22]) was “Active” and the Activity (Mitochondrial membrane) was “Active”. The Activity (HepG2 [23]) was “Active” and the Activity (HepG2 [24]) was “Active”.

In the case of `CCN(CC)c1ccc2cc(-c3nc4ccc(O)cc4c(=O)[nH]3)c(=O)oc2c1`, the Activity [1] is reported as < 5, the Activity [2] is reported as 36.66 and the Activity [3] is reported as 12.86. For the same compound, the IC50 (HepG2 [5]) was 57.6 µM, the IC50 [6] was 24.5 µM and the “Ratio IC50” value [7] was 2.35.

Work on `CCN(CC)c1ccc2cc(-c3nc4ccc(OCc5cn(CCNS(=O)(=O)c6ccc(C)cc6)nn5)cc4c(=O)[nH]3)c(=O)oc2c1` yielded an Activity [1] of 7.55, an Activity [2] of 59.27 and an Activity [3] of 30.08. For the same compound, the Drug uptake [25] was “Active”, the IC50 (HepG2 [5]) was 36.7 µM and the IC50 [6] was 0.15 µM. The “Ratio IC50” value [7] was 244.93, the Activity (HepG2 [26]) was “Active” and the Activity (HepG2 [27]) was “Active”. For the same compound, the Activity (HepG2 [28]) was “Active”, the Activity (HepG2 [29]) was “Active” and the Activity (HepG2 [30]) was “Active”. For the same compound, the Activity (HepG2 [31]) was “Active” and the Activity (HepG2 [32]) was “Active”.

— ChEMBL document CHEMBL6092198, “Coumarin-Quinazolinone based photosensitizers: Mitochondria and endoplasmic reticulum targeting for enhanced phototherapy via different cell death pathways” (Eur J Med Chem, 2024)
